Assay results from patent publication US20260078135A1, “POLYCYCLIC QUINAZOLINES FOR INHIBITION OF ERBB2” (Enliven Inc., priority 2022, published 2026).

What was measured:
[1] = biological target: Ba/F3 ERBB2 YVMA (Homo sapiens, UniProt P04626, DUP772-775, cells depend on it); test: Cell viability assay (CellTiter Glo), Ba/F3 cells engineered to express ERBB2 YVMA; type: cell-based, mouse; settings: Ba/F3 cells expressing human ERBB2 YVMA mutant, 72 hours, read-out: Ba/F3 ERBB2 YVMA, IC50
Procedure, shortened: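 Ba/F3 cells (IL-3-independent via stable retroviral human ERBB2 YVMA) seeded 3000/well and given compound from about 10 μM to 0.51 nM in three-fold steps, DMSO ≤0.1%, 72 h at 37° C. Viability by CellTiter Glo luminescence, normalized to DMSO and media-only controls. Sigmoidal nonlinear fit.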

[2] = biological target: T1, phosphorylated EGFR (pEGFR) (Homo sapiens, UniProt P00533); test: Detection of phosphorylated EGFR (pEGFR) by AlphaLISA in EGF-stimulated A431 cells; type: cell-based; settings: A431 cells (10% FBS), 4 hours incubation, EGF 30 ng/mL for 10 minutes
T1 construct: performed to measure phosphorylated EGFR levels using A431 cells (10% FBS); endogenous in cells; host or cells: A431
T1 sequence (P00533 25-1210): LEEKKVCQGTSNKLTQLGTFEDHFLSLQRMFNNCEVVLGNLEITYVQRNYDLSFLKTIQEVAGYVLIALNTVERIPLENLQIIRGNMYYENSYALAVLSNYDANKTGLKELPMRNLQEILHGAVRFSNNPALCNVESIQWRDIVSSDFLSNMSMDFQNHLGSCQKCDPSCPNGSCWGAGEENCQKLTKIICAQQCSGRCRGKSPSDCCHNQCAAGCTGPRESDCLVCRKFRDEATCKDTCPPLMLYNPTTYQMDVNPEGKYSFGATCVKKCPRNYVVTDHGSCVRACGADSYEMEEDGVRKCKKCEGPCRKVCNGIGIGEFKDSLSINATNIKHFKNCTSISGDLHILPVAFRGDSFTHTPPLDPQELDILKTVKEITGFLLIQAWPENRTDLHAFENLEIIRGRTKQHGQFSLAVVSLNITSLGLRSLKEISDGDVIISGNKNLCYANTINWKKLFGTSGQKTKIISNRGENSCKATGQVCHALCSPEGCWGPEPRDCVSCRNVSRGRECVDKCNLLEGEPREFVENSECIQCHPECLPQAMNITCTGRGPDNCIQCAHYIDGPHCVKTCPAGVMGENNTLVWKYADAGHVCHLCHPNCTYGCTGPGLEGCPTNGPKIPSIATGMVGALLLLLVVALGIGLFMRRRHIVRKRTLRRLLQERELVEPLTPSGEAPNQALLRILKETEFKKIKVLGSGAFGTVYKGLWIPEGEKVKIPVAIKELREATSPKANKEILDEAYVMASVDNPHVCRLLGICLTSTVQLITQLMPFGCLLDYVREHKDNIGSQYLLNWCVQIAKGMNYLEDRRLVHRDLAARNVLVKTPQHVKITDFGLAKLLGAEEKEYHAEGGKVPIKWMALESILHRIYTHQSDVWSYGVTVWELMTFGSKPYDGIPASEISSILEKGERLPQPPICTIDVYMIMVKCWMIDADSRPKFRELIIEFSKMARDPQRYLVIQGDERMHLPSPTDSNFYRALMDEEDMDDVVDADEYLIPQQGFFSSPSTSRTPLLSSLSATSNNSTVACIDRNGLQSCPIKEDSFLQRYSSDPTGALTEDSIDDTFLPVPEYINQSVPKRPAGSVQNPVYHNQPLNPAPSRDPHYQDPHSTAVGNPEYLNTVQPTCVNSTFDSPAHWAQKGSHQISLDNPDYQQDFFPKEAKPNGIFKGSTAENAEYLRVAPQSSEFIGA
Procedure, shortened: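 A431 cells in 10% FBS were preincubated with compound for 4 h at 37 °C, then stimulated with 30 ng/mL EGF for 10 min and lysed. pEGFR read by AlphaLISA. % inhibition normalised to DMSO and staurosporine controls; IC50 from four-parameter curve fit.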

[3] = biological target: T2, phosphorylated ERBB2 (pERBB2) (Homo sapiens, UniProt P04626); test: Detection of phosphorylated ERBB2 (pERBB2) by ELISA in BT-474 cells; type: cell-based; settings: four hour incubation
T2 construct: endogenous in cells; host or cells: BT-474
T2 sequence (P04626 23-1255): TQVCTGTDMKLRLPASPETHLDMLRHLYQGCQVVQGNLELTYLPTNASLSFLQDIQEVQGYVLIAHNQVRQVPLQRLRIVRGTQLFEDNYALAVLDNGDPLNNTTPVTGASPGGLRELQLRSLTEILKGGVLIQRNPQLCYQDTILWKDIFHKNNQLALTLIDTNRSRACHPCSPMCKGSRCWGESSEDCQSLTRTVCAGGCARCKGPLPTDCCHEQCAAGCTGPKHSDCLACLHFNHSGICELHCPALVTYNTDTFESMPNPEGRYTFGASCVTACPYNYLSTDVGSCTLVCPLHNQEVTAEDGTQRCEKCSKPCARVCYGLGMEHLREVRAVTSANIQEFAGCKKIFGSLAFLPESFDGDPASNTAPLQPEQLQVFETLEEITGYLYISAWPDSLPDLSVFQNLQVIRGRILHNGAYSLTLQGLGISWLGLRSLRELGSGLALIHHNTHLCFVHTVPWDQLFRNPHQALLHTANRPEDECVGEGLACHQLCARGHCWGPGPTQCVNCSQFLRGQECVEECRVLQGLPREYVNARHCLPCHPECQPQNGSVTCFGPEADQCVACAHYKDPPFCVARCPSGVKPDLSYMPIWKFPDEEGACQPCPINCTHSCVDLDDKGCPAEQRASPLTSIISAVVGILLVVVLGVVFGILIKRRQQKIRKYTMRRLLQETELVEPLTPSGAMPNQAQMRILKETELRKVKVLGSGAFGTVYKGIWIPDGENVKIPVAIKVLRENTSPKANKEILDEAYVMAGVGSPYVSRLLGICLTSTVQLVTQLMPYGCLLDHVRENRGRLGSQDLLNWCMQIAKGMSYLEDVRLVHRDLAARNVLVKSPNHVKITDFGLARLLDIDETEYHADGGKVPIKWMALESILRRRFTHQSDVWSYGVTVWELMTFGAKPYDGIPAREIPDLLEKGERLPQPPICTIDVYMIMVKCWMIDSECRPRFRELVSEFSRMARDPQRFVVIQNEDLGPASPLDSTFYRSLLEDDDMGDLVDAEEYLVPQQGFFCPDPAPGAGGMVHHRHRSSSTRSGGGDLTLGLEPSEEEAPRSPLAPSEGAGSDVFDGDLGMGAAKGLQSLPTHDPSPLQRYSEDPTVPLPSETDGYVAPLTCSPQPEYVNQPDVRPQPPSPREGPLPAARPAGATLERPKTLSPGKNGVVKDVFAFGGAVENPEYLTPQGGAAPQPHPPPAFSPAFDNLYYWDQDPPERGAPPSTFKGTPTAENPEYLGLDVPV
Procedure, shortened: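 BT-474 cells were treated with compounds (fourfold dilutions, 10 μM to 0.01 nM final) for 4 h at 37 °C, then lysed. pERBB2 in lysates was quantified by ELISA with an HRP anti-phosphotyrosine detection antibody and TMB read at 450 nm; % relative activity was normalized to no-cell and 0.1% DMSO controls.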

Ba/F3 ERBB2 YVMA, sequence (P04626 with tags, fused parts or gaps DUP772-775): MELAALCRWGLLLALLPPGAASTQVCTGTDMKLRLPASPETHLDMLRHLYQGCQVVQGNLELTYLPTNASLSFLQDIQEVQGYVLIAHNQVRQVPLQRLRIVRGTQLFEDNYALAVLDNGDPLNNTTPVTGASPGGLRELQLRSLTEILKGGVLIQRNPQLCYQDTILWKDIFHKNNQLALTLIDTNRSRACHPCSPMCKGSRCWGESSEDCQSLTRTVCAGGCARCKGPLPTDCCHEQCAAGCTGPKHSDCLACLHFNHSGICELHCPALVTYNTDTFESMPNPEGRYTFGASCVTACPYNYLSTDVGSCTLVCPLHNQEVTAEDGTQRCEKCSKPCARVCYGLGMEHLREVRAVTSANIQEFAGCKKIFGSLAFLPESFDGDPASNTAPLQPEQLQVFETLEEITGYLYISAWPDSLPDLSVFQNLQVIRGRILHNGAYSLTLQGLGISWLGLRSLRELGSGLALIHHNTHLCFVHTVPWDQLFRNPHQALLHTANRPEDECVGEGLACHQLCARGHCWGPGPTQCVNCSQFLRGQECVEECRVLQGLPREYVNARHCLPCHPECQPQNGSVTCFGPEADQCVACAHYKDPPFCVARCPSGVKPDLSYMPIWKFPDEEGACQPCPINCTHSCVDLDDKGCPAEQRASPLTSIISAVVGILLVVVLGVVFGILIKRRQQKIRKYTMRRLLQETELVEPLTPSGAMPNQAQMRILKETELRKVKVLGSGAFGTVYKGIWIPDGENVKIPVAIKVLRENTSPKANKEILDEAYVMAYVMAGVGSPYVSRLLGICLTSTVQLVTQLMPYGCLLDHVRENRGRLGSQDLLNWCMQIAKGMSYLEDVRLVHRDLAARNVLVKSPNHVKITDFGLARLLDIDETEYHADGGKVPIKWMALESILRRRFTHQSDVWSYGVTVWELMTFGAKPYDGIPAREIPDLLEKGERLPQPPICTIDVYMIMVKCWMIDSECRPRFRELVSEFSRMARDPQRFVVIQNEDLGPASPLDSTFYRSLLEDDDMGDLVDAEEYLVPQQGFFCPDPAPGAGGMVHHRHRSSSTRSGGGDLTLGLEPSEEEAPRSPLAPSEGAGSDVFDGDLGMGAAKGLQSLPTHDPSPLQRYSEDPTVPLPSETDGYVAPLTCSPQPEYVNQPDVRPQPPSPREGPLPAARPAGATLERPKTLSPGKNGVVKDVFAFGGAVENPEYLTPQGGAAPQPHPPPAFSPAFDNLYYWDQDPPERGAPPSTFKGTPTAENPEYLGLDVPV

| SMILES | GI50 [1] [µM] | IC50 [2] [µM] | IC50 [3] [µM] |
| --- | --- | --- | --- |
| Cc1cc(Nc2ncnc3ccc4c(c23)OC[C@H]2CN4CCN2C)ccc1Oc1ccn2ncnc2c1 [Compound 52, (3R)—N-(4-([1,2,4]triazolo[1,5-a]pyridin-7-yloxy)-3-methylphenyl)-4-methyl-3,4,5,6-tetrahydro-2H-3,7-methano[1,4,7]oxadiazonino[2,3-f]quinazolin-13-amine] | > 0.5 | > 10 | 0.219 |
| Cc1cc(Nc2ncnc3cc4c(nc23)N2CCN(C(=O)/C=C/CN(C)C)C[C@H]2CO4)ccc1Oc1ccc2c(c1)ncn2C [Compound 17, (S,E)-4-(dimethylamino)-1-(11-((3-methyl-4-((1-methyl-1H-benzo[d]imidazol-5-yl)oxy)phenyl)amino)-1,2,4a,5-tetrahydropyrazino[1,2-d]pyrimido[4′,5′:5,6]pyrido[3,2-b][1,4]oxazin-3(4H)-yl)but-2-en-1-one] | 0.00511 | 0.307 | 0.0343 |
| CN(C)C/C=C/C(=O)N1CCN2c3ccc4ncnc(Nc5ccc(Oc6ccn7ncnc7c6)cc5F)c4c3OC[C@@H]2C1 [Compound 95, (S,E)-1-(4-((4-([1,2,4]triazolo[1,5-a]pyridin-7-yloxy)-2-fluorophenyl)amino)-6a,7,9,10-tetrahydropyrazino[1′,2′:4,5][1,4]oxazino[2,3-f]quinazolin-8(6H)-yl)-4-(dimethylamino)but-2-en-1-one] | 0.0196 | 2.78 | 0.0323 |
| Cc1cc(Nc2ncnc3ccc4c(c23)OC[C@H]2CN4CCN2C(=O)/C=C/[C@H](C)N(C)C)ccc1Oc1ccn2ncnc2c1 [Compound 89, (4S,E)-1-((3R)-13-((4-([1,2,4]triazolo[1,5-a]pyridin-7-yloxy)-3-methylphenyl)amino)-2,3,5,6-tetrahydro-4H-3,7-methano[1,4,7]oxadiazonino[2,3-f]quinazolin-4-yl)-4-(dimethylamino)pent-2-en-1-one] | 0.264 | > 10 | 0.172 |
| Cc1cc(Nc2ncnc3cnc4c(c23)OC[C@H]2CN(C)CCN42)ccc1Oc1ccc2c(c1)ncn2C [Compound 120, (R)-8-methyl-N-(3-methyl-4-((1-methyl-1H-benzo[d]imidazol-5-yl)oxy)phenyl)-6,6a,7,8,9,10-hexahydropyrazino[1,2-d]pyrimido[5′,4′:4,5]pyrido[3,2-b][1,4]oxazin-4-amine] | 0.0443 | > 10 | 0.0264 |
| Cc1cc(Nc2ncnc3ccc4c(c23)OC[C@H]2CN4CCN2C(=O)/C=C/CN(C)C)ccc1Oc1ccc2c(c1)nnn2C [Compound 79, (E)-4-(dimethylamino)-1-((3R)-13-((3-methyl-4-((1-methyl-1H-benzo[d][1,2,3]triazol-5-yl)oxy)phenyl)amino)-2,3,5,6-tetrahydro-4H-3,7-methano[1,4,7]oxadiazonino[2,3-f]quinazolin-4-yl)but-2-en-1-one] | 0.00604 | 0.0844 | 0.0142 |
| Cc1cc(Nc2ncnc3ccc4c(c23)OC[C@@H]2CN4CCN2C(=O)/C=C/CN(C)C)ccc1Oc1ccc2c(c1)ncn2C [Compound 30, (E)-4-(dimethylamino)-1-((3S)-13-((3-methyl-4-((1-methyl-1H-benzo[d]imidazol-5-yl)oxy)phenyl)amino)-2,3,5,6-tetrahydro-4H-3,7-methano[1,4,7]oxadiazonino[2,3-f]quinazolin-4-yl)but-2-en-1-one] | > 0.5 | > 10 | 0.304 |
| Cc1cc(Nc2ncnc3ccc4c(c23)OC[C@@H]2CN4CCN2C)ccc1Oc1ccn2ncnc2c1 [Compound 50, (3S)—N-(4-([1,2,4]triazolo[1,5-a]pyridin-7-yloxy)-3-methylphenyl)-4-methyl-3,4,5,6-tetrahydro-2H-3,7-methano[1,4,7]oxadiazonino[2,3-f]quinazolin-13-amine] | > 0.5 | > 10 | 0.195 |
| CN(C)C/C=C/C(=O)N1CCN2C[C@@H]1COc1c2ccc2ncnc(Nc3ccc(Oc4ccn5ncnc5c4)c(F)c3)c12 [Compound 76, (E)-1-((3R)-13-((4-([1,2,4]triazolo[1,5-a]pyridin-7-yloxy)-3-fluorophenyl)amino)-2,3,5,6-tetrahydro-4H-3,7-methano[1,4,7]oxadiazonino[2,3-f]quinazolin-4-yl)-4-(dimethylamino)but-2-en-1-one] | 0.00586 | 0.381 | 0.00566 |
| Cc1cc(Nc2ncnc3ccc4c(c23)OC[C@H]2CN4CCN2C(=O)/C=C/[C@@H](C)N(C)C)ccc1Oc1ccn2ncnc2c1 [Compound 88, (4R,E)-1-((3R)-13-((4-([1,2,4]triazolo[1,5-a]pyridin-7-yloxy)-3-methylphenyl)amino)-2,3,5,6-tetrahydro-4H-3,7-methano[1,4,7]oxadiazonino[2,3-f]quinazolin-4-yl)-4-(dimethylamino)pent-2-en-1-one formic acid] | 0.0603 | 2.82 | 0.0443 |
| Cc1cc(Nc2ncnc3cnc4c(c23)O[C@H]2CCN(C)C[C@H]2N4C)ccc1Oc1ccc2c(c1)ncn2C [Compound 131, (7aR,11aS)-7,9-dimethyl-N-(3-methyl-4-((1-methyl-1H-benzo[d]imidazol-5-yl)oxy)phenyl)-7a,8,9,10,11,11a-hexahydro-7H-pyrido[4,3-b]pyrimido[5′,4′:4,5]pyrido[2,3-e][1,4]oxazin-1-amine] | 0.0871 | > 10 | 0.0327 |
| Cc1cc(Nc2ncnc3ccc4c(c23)O[C@H]2CCN(C)C[C@H]2N4)ccc1Oc1ccc2c(c1)ncn2C [Compound 125, (7aR,11aS)-9-methyl-N-(3-methyl-4-((1-methyl-1H-benzo[d]imidazol-5-yl)oxy)phenyl)-7a,8,9,10,11,11a-hexahydro-7H-pyrido[3′,4′:5,6][1,4]oxazino[2,3-f]quinazolin-1-amine] | 0.164 | > 10 | 0.058 |
| Cc1cc(Nc2ncnc3cnc4c(c23)OC[C@H]2CNCCN42)ccc1Oc1ccc2c(c1)ncn2C [Compound 130, (R)—N-(3-methyl-4-((1-methyl-1H-benzo[d]imidazol-5-yl)oxy)phenyl)-6,6a,7,8,9,10-hexahydropyrazino[1,2-d]pyrimido[5′,4′:4,5]pyrido[3,2-b][1,4]oxazin-4-amine] | 0.17 | > 10 | 0.065 |
| Cc1cc(Nc2ncnc3ccc4c(c23)OC[C@H]2CN4CCN2C(=O)/C=C/CN(C)C)ccc1Oc1ccn2ncnc2c1 [Compound 27, (E)-1-((3R)-13-((4-([1,2,4]triazolo[1,5-a]pyridin-7-yloxy)-3-methylphenyl)amino)-2,3,5,6-tetrahydro-4H-3,7-methano[1,4,7]oxadiazonino[2,3-f]quinazolin-4-yl)-4-(dimethylamino)but-2-en-1-one] | 0.00769 | 0.189 | 0.00875 |
| Cc1cc(Nc2ncnc3ccc4c(c23)OC[C@@H]2CN(C(=O)/C=C/CN(C)C)CCN42)c(F)cc1Oc1ccn2ncnc2c1 [Compound 92, (S,E)-1-(4-((4-([1,2,4]triazolo[1,5-a]pyridin-7-yloxy)-2-fluoro-5-methylphenyl)amino)-6a,7,9,10-tetrahydropyrazino[1′,2′:4,5][1,4]oxazino[2,3-f]quinazolin-8(6H)-yl)-4-(dimethylamino)but-2-en-1-one] | 0.018 | 2.16 | 0.0208 |
| Cc1cc(Nc2ncnc3cc4c(cc23)N2CCN(C(=O)/C=C/CN(C)C)C[C@H]2CO4)ccc1Oc1ccn2ncnc2c1 [Compound 9, (S,E)-1-(11-((4-([1,2,4]triazolo[1,5-a]pyridin-7-yloxy)-3-methylphenyl)amino)-1,2,4a,5-tetrahydropyrazino[1′,2′:4,5][1,4]oxazino[3,2-g]quinazolin-3(4H)-yl)-4-(dimethylamino)but-2-en-1-one] | 0.0412 | 1.68 | 0.0361 |
| Cc1cc(Nc2ncnc3cc4c(cc23)N2CCOC[C@H]2CO4)ccc1Oc1ccc2c(c1)ncn2C [Compound 121, (S)—N-(3-methyl-4-((1-methyl-1H-benzo[d]imidazol-5-yl)oxy)phenyl)-1,2,4a,5-tetrahydro-4H-[1,4]oxazino[4′,3′:4,5][1,4]oxazino[3,2-g]quinazolin-11-amine] | 0.071 | > 10 | 0.0272 |
| CC#CC(=O)N1CCN2c3cc4c(Nc5ccc(Oc6ccc7c(c6)ncn7C)c(C)c5)ncnc4cc3OC[C@@H]2C1 [Compound 14, (S)-1-(11-((3-methyl-4-((1-methyl-1H-benzo[d]imidazol-5-yl)oxy)phenyl)amino)-1,2,4a,5-tetrahydropyrazino[1′,2′:4,5][1,4]oxazino[3,2-g]quinazolin-3(4H)-yl)but-2-yn-1-one] | 0.0144 | 0.545 | 0.0828 |
| Cc1cc(Nc2ncnc3cc4c(nc23)N2CCNC[C@H]2CO4)ccc1Oc1ccn2ncnc2c1 [Compound 34, (S)—N-(4-([1,2,4]triazolo[1,5-a]pyridin-7-yloxy)-3-methylphenyl)-1,2,3,4,4a,5-hexahydropyrazino[1,2-d]pyrimido[4′,5′:5,6]pyrido[3,2-b][1,4]oxazin-11-amine] | 0.474 | > 10 | 0.0536 |
